Results from paper PMC9806268, “Overlapping activation pattern of bitter taste receptors affect sensory adaptation and food perception” (Frontiers in Nutrition, 2022).
Like-named read-outs stand apart in the source and are kept apart here.

Experiments:
Assay in all cases: Fluo-4 calcium mobilization assay (FLIPR), stable inducible cells
Assay type in all cases: cell-based
TAS2R14 = biological target: T1, TAS2R14 (Homo sapiens, UniProt Q9NYV8); conditions: agonist; C1 buffer pH 7.4; non-induced cells subtracted
T1 sequence (Q9NYV8 1-317): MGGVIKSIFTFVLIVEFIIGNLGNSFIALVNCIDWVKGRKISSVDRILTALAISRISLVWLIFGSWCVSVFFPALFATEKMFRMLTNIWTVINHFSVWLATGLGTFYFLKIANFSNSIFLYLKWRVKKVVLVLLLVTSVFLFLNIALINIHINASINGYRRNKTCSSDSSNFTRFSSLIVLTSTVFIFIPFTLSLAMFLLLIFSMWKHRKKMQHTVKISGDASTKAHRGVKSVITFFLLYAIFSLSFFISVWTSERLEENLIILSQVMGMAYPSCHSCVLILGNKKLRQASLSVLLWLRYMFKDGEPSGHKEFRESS
Text: Fluo-4 calcium mobilization assay (FLIPR), stable inducible cells on TAS2R14

TAS2R43 = biological target: T2, TAS2R43 (Homo sapiens, UniProt P59537); conditions: for EC50: read-out: TAS2R43 / EC50-conc.
T2 sequence (P59537 1-309): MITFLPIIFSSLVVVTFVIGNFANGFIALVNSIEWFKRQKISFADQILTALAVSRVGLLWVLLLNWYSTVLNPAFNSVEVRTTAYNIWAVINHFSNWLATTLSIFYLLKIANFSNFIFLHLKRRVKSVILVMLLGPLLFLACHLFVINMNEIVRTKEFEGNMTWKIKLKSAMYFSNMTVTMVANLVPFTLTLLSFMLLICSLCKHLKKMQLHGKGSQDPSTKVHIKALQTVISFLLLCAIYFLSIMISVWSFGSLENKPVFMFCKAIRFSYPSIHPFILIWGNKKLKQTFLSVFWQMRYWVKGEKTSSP
Text: Fluo-4 calcium mobilization assay (FLIPR), stable inducible cells on TAS2R43

TAS2R46 = biological target: T3, TAS2R46 (Homo sapiens, UniProt P59540)
T3 construct: cDNA in pcDNA5/FRT/TO
T3 sequence (P59540 1-309): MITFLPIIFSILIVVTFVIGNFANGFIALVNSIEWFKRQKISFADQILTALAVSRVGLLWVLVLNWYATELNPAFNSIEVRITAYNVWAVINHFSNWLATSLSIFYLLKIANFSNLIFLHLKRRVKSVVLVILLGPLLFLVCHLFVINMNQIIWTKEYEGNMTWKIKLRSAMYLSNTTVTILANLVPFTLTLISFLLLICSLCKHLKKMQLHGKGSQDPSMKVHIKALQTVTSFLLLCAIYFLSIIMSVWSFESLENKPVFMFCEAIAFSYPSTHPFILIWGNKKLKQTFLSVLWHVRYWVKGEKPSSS
Text: Fluo-4 calcium mobilization assay (FLIPR), stable inducible cells on TAS2R46

[1] = agonist, C1 buffer pH 7.4, non-induced cells subtracted

Row | Molecule | TAS2R14 / Threshold (TAS2R14) [µM] | EC50 (TAS2R43) [µM] | EC50 (TAS2R46; read-out: TAS2R46 / EC50-conc.) [µM] | EC50 (TAS2R43; [1]) [µM] | TAS2R43 threshold (TAS2R43; [1]) [µM] | TAS2R46 / Threshold (TAS2R46; [1]) [µM]
1 | C=C1C(=O)O[C@@H]2[C@H]3C(CO)=CC(=O)C3=C(C)C[C@H](O)[C@@H]12 [lactucin] | 100 | 14.9 ± 2.5 | 8.85 ± 1.17 | – | – | –
2 | lactucopicrin | 30 | – | – | 0.46 ± 0.08 | – | –
3 | CC1=C2C(=O)C=C(CO)[C@@H]2[C@H]2OC(=O)[C@@H](C)[C@@H]2[C@@H](O)C1 [11β,13-dihydrolactucin] | 100 | – | – | – | 10 | 30
